From patent US20200190101A1, “Composition Containing Novel Glutamic Acid Derivative And Block Copolymer, And Use Thereof” (Nippon Kayaku Kabushiki Kaisha, priority 2015, published 2020)
Where a name gives a salt, the structure may show the parent alone.

Test system: Human renal cell cancer OS-RC-2
Assay: Test on antitumor effect of Example 6, OS-RC-2
Type: in vivo, nude mice
Settings: 20 mg/kg in terms of epirubicin, i.v. once
Description: Human renal cell cancer OS-RC-2 was transplanted into nude mice similarly to Test Example 15, and after tumor engraftment was confirmed, the composition of Example 6 according to the present invention was dissolved in 5% glucose. The solution was intravenously administered through the caudal vein once at a dose of 10 or 20 mg/kg in terms of epirubicin. Furthermore, as a control drug, epirubicin hydrochloride was dissolved in a physiological solution, and the solution was intravenously administered through the caudal vein once at a dose of 10 or 20 mg/kg in terms of epirubicin.
After the administration, the major axis (L) and the minor axis (W) of a tumor were measured using calipers at an interval of 2 to 3 days, the tumor volume was calculated by the formula: (L×W^2)/2, and the tumor volume change rate from the administration initiation day was determined.

## COc1cccc2c1C(=O)c1c(O)c3c(c(O)c1C2=O)C[C@@](O)(C(=O)CO)C[C@@H]3O[C@H]1C[C@H](N)[C@@H](O)[C@H](C)O1 [epirubicin hydrochloride]
  Toxicity (death of mice): the mice died 8 days after the administration due to toxicity
